# Data published in publication PMC8151276, “An Integrated Approach toward NanoBRET Tracers for Analysis of GPCR Ligand Engagement” (Molecules, 2021).
# How the values were obtained:
# [1] = molecular target: T1, PTGER1 (Homo sapiens, UniProt P34995); assay: NanoBRET screen HiBiT-PTGER1 in HEK293; type: binding
# T1 construct: purchased Promega (in-house HiBiT-GPCR construct library, NanoBRET)
# T1 sequence (P34995 1-402): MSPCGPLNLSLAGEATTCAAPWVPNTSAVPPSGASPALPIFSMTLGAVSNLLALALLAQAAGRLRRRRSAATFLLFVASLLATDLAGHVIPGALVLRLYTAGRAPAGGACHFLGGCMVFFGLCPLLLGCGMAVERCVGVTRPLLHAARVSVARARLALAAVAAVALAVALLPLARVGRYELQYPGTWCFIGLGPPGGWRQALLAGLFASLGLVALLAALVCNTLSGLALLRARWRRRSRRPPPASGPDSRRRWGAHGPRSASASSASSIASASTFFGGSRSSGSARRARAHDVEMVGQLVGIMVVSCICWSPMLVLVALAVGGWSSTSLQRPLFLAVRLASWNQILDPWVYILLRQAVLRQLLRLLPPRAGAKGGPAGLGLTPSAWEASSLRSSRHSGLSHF
# Procedure: (§1) Each tracer candidate was screened across the entire library of HiBiT-GPCR constructs using NanoBRET as the detection modality. As depicted in Figure 4A, the specificity of interactions was evaluated through decrease in BRET due to competitive displacement of a bound tracer by excess parental compound. Each tracer was analyzed for binding to each HiBiT-GPCR fusion in the absence and in the presence of competing parental compound. Briefly, HEK293 cells were transfected with HiBiT-GPCR constructs diluted into promoterless DNA to reduce expression and maximize translocation to the cell surface. Each tracer candidate was then screened at concentrations of 1 μM and 0.1 μM across cells expressing these fusions. Cells were treated for 1.5 h with tracer either alone or in the presence of 20 μM competing parental compound (i.e., control). BRET was measured upon addition of purified LgBiT and subsequent complementation with HiBiT genetically fused to a GPCR. The specificity of interactions was assessed through a decrease in BRET signal due to competitive displacement of the bound tracer. To further gauge the robustness of these interactions, the fold response over the control (i.e., BRETtracer/BRETcontrol) was calculated. We chose a 1.5-fold response, which translates to ≥7-fold signal over noise as the minimal threshold required to score an interaction as positive. […]. Below we highlight the screening results obtained for our exemplary fluorescent tracers based on Clozapine, Amitriptyline and AZD1283.
# (§2) HiBiT-GPCR DNA constructs were diluted in 10 mM Tris pH 8 to a final concentration of 0.01 μg/μL, arrayed in 96-well plates and stored at −20 °C. For transfection, HEK293 cells were suspended in Opti-MEM (without phenol red) supplemented with 2% fetal bovine serum (Seradigm) and 100 units/mL penicillin–streptomycin (Gibco) at a final concentration of 220,000 cells/mL and dispensed into white 96-well plates at 90 μL/well. Subsequent transfections and screens were carried using an Agilent Bravo Automated Liquid Handling Platform. First, the 96-well HiBiT DNA arrays were diluted 25-fold in Opti-MEM (without serum or phenol red) to a final concentration of 0.0004 μg/μL and 20 μL of the diluted DNAs were transferred into new 96-well plates. Next, promoterless carrier DNA (1 μg/μL) was diluted 25-fold (0.04 μg/μL) and then dispensed into the diluted arrays at 20 μL/well. Following brief mixing, Viafect transfection reagent (Promega) diluted 16-fold into Opti-MEM was dispensed into the plates at 40 μL/well. After mixing by pipetting, plates were incubated for 10 min on the pipetting station deck. The DNA-transfection reagent complexes were then added to plates containing cells. To facilitate the screen, 10 μL of DNA-transfection reagent complexes were added in duplicates to the top 4 and bottom 4 rows, resulting in two identical 48-well arrays per plate. Plates with transfected cells were incubated for 18–20 h at 37 °C/5% CO2. A screen of each tracer across the entire library using two different concentrations requires duplicate plates of transfected cells. Depending on the number of tracers being screened, transfections can be scaled up using the same ratios. The next day, for each tracer, four 20× screening solutions in tracer dilution buffer (Promega) were prepared: two duplicates at final concentration of 20 μM and two duplicates at a final concentration of 2 μM. A competing unmodified compound was added to one of each duplicate at a final concentration of 400 μM. The four resulting solutions were diluted 4-fold in Opti-MEM without serum or phenol red to generate 5× solutions (5 µM and 0.5 µM tracer +/− 100 μM competing compound). To screen the library, a BioTek MultiFlo FX liquid dispenser was used to dispense 22.5 µL of tracer solution to the top 4 rows and 22.5 µL tracer + competing compound solution to the 4 bottom rows. Plates were briefly mixed on an orbital shaker and incubated for 1.5 h at room temperature. […]
# [2] = molecular target: T2, ADORA2B (Homo sapiens, UniProt P29275); assay: NanoBRET screen HiBiT-ADORA2B in HEK293; type: binding
# T2 construct: purchased Promega (in-house HiBiT-GPCR construct library, NanoBRET)
# T2 sequence (P29275 1-332): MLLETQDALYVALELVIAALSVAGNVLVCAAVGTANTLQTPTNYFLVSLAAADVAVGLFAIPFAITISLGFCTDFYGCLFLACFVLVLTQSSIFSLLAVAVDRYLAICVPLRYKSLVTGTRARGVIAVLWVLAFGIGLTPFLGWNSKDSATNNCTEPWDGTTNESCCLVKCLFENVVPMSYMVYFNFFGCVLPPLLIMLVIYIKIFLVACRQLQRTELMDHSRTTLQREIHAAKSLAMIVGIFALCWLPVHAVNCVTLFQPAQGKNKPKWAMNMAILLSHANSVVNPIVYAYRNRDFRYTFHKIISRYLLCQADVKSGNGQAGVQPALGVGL
# Procedure: as §1, §2
Structure (SMILES),"NanoBRET Fold Response ([1]; PTGER1, tracer 0.1μM)","NanoBRET Fold Response ([1]; PTGER1, tracer 1μM)","NanoBRET Fold Response ([2]; ADORA2B, tracer 0.1μM)","NanoBRET Fold Response ([2]; ADORA2B, tracer 1μM)",further results
CCOC(=O)c1cc(C#N)c(N2CCC(C(=O)NS(=O)(=O)Cc3ccccc3/C=C/C(=O)NCCNC(=O)CCc3ccc4n3[B-](F)(F)[N+]3=C(c5ccc[nH]5)C=CC3=C4)CC2)nc1C [AZD1283-1-NB590],–,–,–,–,"NanoBRET Fold Response ([1]; PTGER1, 0.1μM): 1.17; NanoBRET Fold Response ([1]; PTGER1, 1μM): 1.14; NanoBRET Fold Response ([2]; ADORA2B, 0.1μM): 0.94; NanoBRET Fold Response ([2]; ADORA2B, 1μM): 0.93"
N#CN=C(NCCCOc1cccc(CN2CCCCC2)c1)NCCNC(=O)CCOCCOCCOCCOCCNC(=O)CCc1ccc2n1[B-](F)(F)[N+]1=C(c3ccc[nH]3)C=CC1=C2 [Aminopotentidine-2-NB590],0.97,0.95,1.37,1.06,–
CN(C)CCC=C1c2ccccc2CCc2ccc(C(=O)NCCNC(=O)CCOCCOCCOCCOCCNC(=O)CCc3ccc4n3[B-](F)(F)[N+]3=C(c5ccc[nH]5)C=CC3=C4)cc21 [Amitriptyline-a-2-NB590],–,–,–,–,NanoBRET Fold Response ([2]; tracer at 0.1μM): 1.10; NanoBRET Fold Response ([2]; tracer at 1μM): 0.93
CN(C)CCC=C1c2ccccc2CCc2ccc(C(=O)NCCNC(=O)CCOCCOCCOCCOCCNC(=O)CCc3ccc4n3[B-](F)(F)[N+]3=C(c5ccc[nH]5)C=CC3=C4)cc21 [Amitriptyline-b-2-NB590],–,–,–,–,"NanoBRET Fold Response ([1]; tracer at 0.1μM): 1.07; NanoBRET Fold Response ([1]; tracer at 1μM): 1.01; NanoBRET Fold Response ([2]; tracer at 0.1μM, listed as amitriptyline-b-2-NB590): 1.40"
COc1ccc2c(n1)c(CCNC(C)=O)cn2CCNC(=O)CCc1ccc2n1[B-](F)(F)[N+]1=C(c3ccc[nH]3)C=CC1=C2 [Azamelatonin-1-NB590],–,–,–,–,NanoBRET Fold Response ([1]; 0.1μM tracer): 1.20; NanoBRET Fold Response ([1]; 1μM tracer): 0.95; NanoBRET Fold Response ([2]; 0.1μM tracer): 0.49; NanoBRET Fold Response ([2]; 1μM tracer): 0.60
COc1ccc2[nH]c(-c3ccc(CNC(=O)CCOCCOCCOCCOCCNC(=O)CCc4ccc5n4[B-](F)(F)[N+]4=C(c6ccc[nH]6)C=CC4=C5)cc3)c(CCNC(C)=O)c2n1 [AzomelatoninICO9-2-NB590],–,–,–,–,NanoBRET Fold Response ([1]; 0.1μM tracer): 0.77; NanoBRET Fold Response ([1]; 1μM tracer): 0.95; NanoBRET Fold Response ([2]; 0.1μM tracer): 0.82; NanoBRET Fold Response ([2]; 1μM tracer): 1.21
O=C(CCOCCOCCOCCOCCNC(=O)CCc1ccc2n1[B-](F)(F)[N+]1=C(c3ccc[nH]3)C=CC1=C2)NCCCN1CCN(C2=Nc3cc(Cl)ccc3Nc3ccccc32)CC1 [Clozapine-a-2-NB590],–,–,–,–,"NanoBRET Fold Response ([1]; PTGER1, 0.1μM tracer): 1.03; NanoBRET Fold Response ([1]; PTGER1, 1μM tracer): 1.02; NanoBRET Fold Response ([2]; ADORA2B, 0.1μM tracer): 1.01; NanoBRET Fold Response ([2]; ADORA2B, 1μM tracer): 0.67"
CN1CCN(C2=Nc3cc(Cl)ccc3Nc3ccc(CNC(=O)CCOCCOCCOCCOCCNC(=O)CCc4ccc5n4[B-](F)(F)[N+]4=C(c6ccc[nH]6)C=CC4=C5)cc32)CC1 [Clozapine-b-2-NB590],–,–,–,–,"NanoBRET Fold Response ([1]; PTGER1, 0.1μM tracer): 1.01; NanoBRET Fold Response ([1]; PTGER1, 1μM tracer): 0.97; NanoBRET Fold Response ([2]; ADORA2B, 0.1μM tracer): 1.07; NanoBRET Fold Response ([2]; ADORA2B, 1μM tracer): 0.99"
CN1CCN(C2=Nc3cc(Cl)ccc3N(CC(=O)NCCOCCOCCOCCOCCNC(=O)CCc3ccc4n3[B-](F)(F)[N+]3=C(c5ccc[nH]5)C=CC3=C4)c3ccccc32)CC1 [Clozapine-c-2-NB590],–,–,–,–,"NanoBRET Fold Response ([1]; PTGER1, 0.1μM tracer): 1.00; NanoBRET Fold Response ([1]; PTGER1, 1μM tracer): 0.92; NanoBRET Fold Response ([2]; ADORA2B, 0.1μM tracer): 1.07; NanoBRET Fold Response ([2]; ADORA2B, 1μM tracer): 0.91"
O=C(CCOCCOCCOCCOCCNC(=O)CCc1ccc2n1[B-](F)(F)[N+]1=C(c3ccc[nH]3)C=CC1=C2)NCCCN1CCN(C2=Nc3ccccc3Oc3ccc(Cl)cc32)CC1 [Loxapine-a-2-NB590],1.09,1.08,1.41,0.62,–
COc1ccccc1N1CCN(CCCCN2C(=O)c3ccc(CNC(=O)CCOCCOCCOCCOCCNC(=O)CCc4ccc5n4[B-](F)(F)[N+]4=C(c6ccc[nH]6)C=CC4=C5)cc3C2=O)CC1 [NAN-190-2-NB590],0.93,1.04,0.94,0.64,–
COc1ccccc1N1CCN(CCCCN2C(=O)c3ccc(CNC(=O)CCOCCNC(=O)c4ccc(CNC(=O)CCc5ccc6n5[B-](F)(F)[N+]5=C(c7ccc[nH]7)C=CC5=C6)cc4)cc3C2=O)CC1 [NAN-190-3-NB590],0.89,1.11,0.94,1.30,–
O=C(CCc1ccc2n1[B-](F)(F)[N+]1=C(c3ccc[nH]3)C=CC1=C2)NCc1ccc(C(=O)NCCOCCC(=O)N[C@@H]2CC[C@@]3(O)[C@H]4Cc5ccc(O)c6c5[C@@]3(CCN4CC3CC3)[C@H]2O6)cc1 [Naltrexone-3-NB590],1.01,1.02,0.20,0.77,–
Cc1cc2c(s1)Nc1ccccc1N=C2N1CCN(CCCNC(=O)CCOCCOCCOCCOCCNC(=O)CCc2ccc3n2[B-](F)(F)[N+]2=C(c4ccc[nH]4)C=CC2=C3)CC1 [Olanzapine-a-2-NB590],1.03,1.04,0.92,1.04,–
O=C(CCc1ccc2n1[B-](F)(F)[N+]1=C(c3ccc[nH]3)C=CC1=C2)NCc1ccc(C(=O)NCCOCCOCCNCC(O)COc2cccc3ccccc23)cc1 (stereo not drawn) [Propranolol-3-NB590],–,–,–,–,"NanoBRET Fold Response ([1]; PTGER1, 0.1μM): 1.07; NanoBRET Fold Response ([1]; PTGER1, 1μM): 1.06; NanoBRET Fold Response ([2]; ADORA2B, 0.1μM): 1.10; NanoBRET Fold Response ([2]; ADORA2B, 1μM): 0.95"
O=C(CCc1ccc2n1[B-](F)(F)[N+]1=C(c3ccc[nH]3)C=CC1=C2)NCCOCCOCCNC(=O)OCCOCCN1CCN(C2=Nc3ccccc3Sc3ccccc32)CC1 [Quetiapine-a-2-NB590],1.07,1.05,0.80,1.02,–
Cc1nc2n(c(=O)c1CCN1CCC(c3noc4cc(F)ccc34)CC1)CCCC2OC(=O)NCCOCCOCCOCCOCCNC(=O)CCc1ccc2n1[B-](F)(F)[N+]1=C(c3ccc[nH]3)C=CC1=C2 (stereo not drawn) [Risperidone-2-NB590],1.04,1.07,0.94,1.05,–
CC(C)N(CC[C@H](c1ccccc1)c1cc(CCNC(=O)CCOCCOCCOCCOCCNC(=O)CCc2ccc3n2[B-](F)(F)[N+]2=C(c4ccc[nH]4)C=CC2=C3)ccc1O)C(C)C [Tolterodine-2-NB590],1.00,1.23,0.81,0.97,–
